Experimental data as given in ChEMBL document CHEMBL4673230, “Total Synthesis of Natural Lembehyne C and Investigation of Its Cytotoxic Properties” (J Nat Prod, 2020).
Activity calls are given as the source filed them. The rule behind the calls is not given here.

Experiments:
[1] = test system: Jurkat; assay: Induction of ROS generation in human Jurkat cells assessed as mitochondria damaged cells at 200 nM after 24 hrs by MitoSox Red/annexin V-CF488A staining based flow cytometric analysis (reference value: 0%); assay type: functional
[2] = test system: K562; assay: Cytotoxicity against human K562 cells assessed as reduction in cell viability by 7-AAD staining based flow cytometric analysis; assay type: functional
[3] = test system: Jurkat; assay: Induction of cell cycle arrest in human Jurkat cells assessed as accumulation at G2/G1 phase at 100 nM after 24 hrs by Guava Cell Cycle reagent based flow cytometric analysis relative to control; assay type: functional
[4] = test system: Jurkat; assay: Induction of ROS generation in human Jurkat cells assessed as apoptotic cells with clear mitochondrial damages at 200 nM after 4 hrs by MitoSox Red/annexin V-CF488A staining based flow cytometric analysis (reference value: 0.39%); assay type: functional
[5] = test system: Jurkat; assay: Induction of DNA damage in human Jurkat cells assessed as increase in H2Ax phosphorylation at 0.4 uM after 2 hrs by Alexa Fluor555 staining based flow cytometric analysis; assay type: functional, cell-based
[6] = test system: Jurkat; assay: Induction of cell cycle arrest in human Jurkat cells assessed as accumulation at G2/G1 phase at 400 nM after 24 hrs by Guava Cell Cycle reagent based flow cytometric analysis relative to control; assay type: functional
[7] = test system: Jurkat; assay: Cytotoxicity against human Jurkat cells assessed as reduction in cell viability by 7-AAD staining based flow cytometric analysis; assay type: functional
[8] = test system: Jurkat; assay: Induction of cell cycle arrest in human Jurkat cells assessed as accumulation at S phase at 400 nM after 24 hrs by Guava Cell Cycle reagent based flow cytometric analysis relative to control; assay type: functional
[9] = test system: Jurkat; assay: Induction of apoptosis in human Jurkat cells assessed as early apoptotic cells at 50 nM after 24 hrs by Annexin V/7-AAD staining.based flow cytometric analysis relative to control; assay type: functional
[10] = test system: Jurkat; assay: Induction of apoptosis in human Jurkat cells assessed as viable cells at 50 nM after 24 hrs by Annexin V/7-AAD staining.based flow cytometric analysis relative to control; assay type: functional; conditions: read-out: Activity
[11] = test system: Jurkat; assay: Induction of apoptosis in human Jurkat cells assessed as late apoptotic cells at 100 nM after 24 hrs by Annexin V/7-AAD staining.based flow cytometric analysis relative to control; assay type: functional
[12] = test system: Jurkat; assay: Induction of cell cycle arrest in human Jurkat cells assessed as accumulation at G1 phase at 200 nM after 24 hrs by Guava Cell Cycle reagent based flow cytometric analysis relative to control; assay type: functional
[13] = Effect on total NFKappaB level in human jurkat cells at 400 nM by magnetic bead based immunoassay; assay type: cell-based; conditions: 0.4 µM
[14] = test system: Jurkat; assay: Induction of apoptosis in human Jurkat cells assessed as late apoptotic cells at 200 nM after 24 hrs by Annexin V/7-AAD staining.based flow cytometric analysis relative to control; assay type: functional
[15] = test system: Jurkat; assay: Induction of cell cycle arrest in human Jurkat cells assessed as accumulation at sub-G1 phase at 400 nM after 24 hrs by Guava Cell Cycle reagent based flow cytometric analysis relative to control; assay type: functional
[16] = test system: Jurkat; assay: Induction of cell cycle arrest in human Jurkat cells assessed as accumulation at G2 phase at 200 nM after 24 hrs by Guava Cell Cycle reagent based flow cytometric analysis relative to control; assay type: functional
[17] = test system: Jurkat; assay: Induction of cell cycle arrest in human Jurkat cells assessed as accumulation at G1 phase at 50 nM after 24 hrs by Guava Cell Cycle reagent based flow cytometric analysis relative to control; assay type: functional
[18] = test system: Jurkat; assay: Induction of apoptosis in human Jurkat cells assessed as late apoptotic cells at 50 nM after 24 hrs by Annexin V/7-AAD staining.based flow cytometric analysis relative to control; assay type: functional
[19] = test system: Jurkat; assay: Induction of apoptosis in human Jurkat cells assessed as early apoptotic cells at 200 nM after 24 hrs by Annexin V/7-AAD staining.based flow cytometric analysis relative to control; assay type: functional
[20] = test system: Jurkat; assay: Induction of cell cycle arrest in human Jurkat cells assessed as accumulation at sub-G1 phase at 50 nM after 24 hrs by Guava Cell Cycle reagent based flow cytometric analysis relative to control; assay type: functional
[21] = test system: Jurkat; assay: Induction of cell cycle arrest in human Jurkat cells assessed as accumulation at S phase at 200 nM after 24 hrs by Guava Cell Cycle reagent based flow cytometric analysis relative to control; assay type: functional
[22] = test system: Jurkat; assay: Induction of apoptosis in human Jurkat cells assessed as viable cells at 100 nM after 24 hrs by Annexin V/7-AAD staining.based flow cytometric analysis relative to control; assay type: functional; conditions: read-out: Activity
[23] = test system: Jurkat; assay: Induction of cell cycle arrest in human Jurkat cells assessed as accumulation at G1 phase at 400 nM after 24 hrs by Guava Cell Cycle reagent based flow cytometric analysis relative to control; assay type: functional
[24] = test system: Jurkat; assay: Induction of apoptosis in human Jurkat cells assessed as late apoptotic cells at 400 nM after 24 hrs by Annexin V/7-AAD staining.based flow cytometric analysis relative to control; assay type: functional
[25] = Effect on total p70S6K level in human jurkat cells at 400 nM by magnetic bead based immunoassay; assay type: cell-based; conditions: 0.4 µM
[26] = test system: Jurkat; assay: Induction of apoptosis in human Jurkat cells assessed as necrotic cells at 200 nM after 24 hrs by Annexin V/7-AAD staining.based flow cytometric analysis relative to control; assay type: functional
[27] = Effect on total JNK in human jurkat cells at 400 nM by magnetic bead based immunoassay; assay type: cell-based; conditions: 0.4 µM
[28] = test system: Jurkat; assay: Induction of ROS generation in human Jurkat cells at 200 nM after 2 hrs by MitoSox Red/annexin V-CF488A staining based flow cytometric analysis relative to control; assay type: functional
[29] = test system: Jurkat; assay: Induction of apoptosis in human Jurkat cells assessed as necrotic cells at 100 nM after 24 hrs by Annexin V/7-AAD staining.based flow cytometric analysis relative to control; assay type: functional
[30] = Effect on total p38 level in human jurkat cells at 400 nM by magnetic bead based immunoassay; assay type: cell-based; conditions: 0.4 µM
[31] = test system: Jurkat; assay: Induction of cell cycle arrest in human Jurkat cells assessed as accumulation at G1 phase at 100 nM after 24 hrs by Guava Cell Cycle reagent based flow cytometric analysis relative to control; assay type: functional
[32] = test system: Jurkat; assay: Induction of cell cycle arrest in human Jurkat cells assessed as accumulation at super-G2 phase at 100 nM after 24 hrs by Guava Cell Cycle reagent based flow cytometric analysis relative to control; assay type: functional
[33] = test system: Jurkat; assay: Induction of cell cycle arrest in human Jurkat cells assessed as accumulation at G2 phase at 50 nM after 24 hrs by Guava Cell Cycle reagent based flow cytometric analysis relative to control; assay type: functional

C#C[C@H](O)CCCCCCCCC/C=C\CC/C=C\CC/C=C\CCCCCCCCCCCCCCCC
Activity [1]: 0%
IC50 [2]: 0.373 µM
Activity [3]: 1.94%
Activity [4]: 25.4%
Activity [5]: inactive
Activity [6]: 1.93%
IC50 [7]: 0.161 µM
Activity [8]: 31.5%
Activity [9]: 14.25%
viability at 0.05 µM [10]: 59.8%
Activity [11]: 39.78%
Activity [12]: 33.86%
Activity [13]: Toxic
Activity [14]: 43.15%
Activity [15]: 16.56%
Activity [16]: 8.65%
Activity [17]: 44.65%
Activity [18]: 23.53%
Activity [19]: 13.2%
Activity [20]: 10.76%
Activity [21]: 28.57%
viability at 0.1 µM [22]: 41.7%
Activity [23]: 30.24%
Activity [24]: 50.24%
Activity [25]: Toxic
Activity [26]: 7.51%
Activity [27]: Toxic
Activity [28]: 25.4%
Activity [29]: 5.89%
Activity [30]: Toxic
Activity [31]: 34.96%
Activity [32]: 1.21%
Activity [33]: 5.09%
